Values quoted from earlier work, collected in patent US20230059869A1, “ORAL PHARMACEUTICAL SOLUTION OF CLOPIDOGREL” (LIQMEDS WORLDWIDE LIMITED, priority 2021, published 2023).

Assays:
[1] = see Reist; Badorc
[2] = at high doses; see Reist; Badorc

Structure (SMILES): COC(=O)[C@@H](c1ccccc1Cl)N1CCc2sccc2C1 [Impurity C, (R)-Methyl (2-chlorophenyl)(6,7-dihydro-4H-thieno[3,2-c]pyridin-5-yl)acetate]
- antithrombotic activity [1]: devoid of antithrombotic activity
- convulsions [2]: can evoke convulsions at high doses
